In ChEMBL document CHEMBL3826886, “LpxC Inhibitors: Design, Synthesis, and Biological Evaluation of Oxazolidinones as Gram-negative Antibacterial Agents” (ACS Med Chem Lett, 2016):
Values after ≈ are worked out from the molar mass of the structure shown. Active and inactive are the calls of the source. No cut-off for these calls is given here.

What was measured:
Escherichia coli [1] = assay: Antibacterial activity against wild-type Escherichia coli TG1 after 16 to 20 hrs by agar dilution method; assay type: functional
Klebsiella pneumoniae = assay: Antibacterial activity against wild-type Klebsiella pneumoniae ATCC 13883 by agar dilution method; assay type: functional
[2] = molecular target: T1, UDP-3-O-acyl-N-acetylglucosamine deacetylase (Escherichia coli K-12, UniProt P0A725); assay: Inhibition of Escherichia coli LpxC using UDP-3-O-(R-3-hydroxymyristoyl)GlcNAc as substrate measured after 60 mins by fluorescence analysis
T1 sequence (P0A725 whole entry): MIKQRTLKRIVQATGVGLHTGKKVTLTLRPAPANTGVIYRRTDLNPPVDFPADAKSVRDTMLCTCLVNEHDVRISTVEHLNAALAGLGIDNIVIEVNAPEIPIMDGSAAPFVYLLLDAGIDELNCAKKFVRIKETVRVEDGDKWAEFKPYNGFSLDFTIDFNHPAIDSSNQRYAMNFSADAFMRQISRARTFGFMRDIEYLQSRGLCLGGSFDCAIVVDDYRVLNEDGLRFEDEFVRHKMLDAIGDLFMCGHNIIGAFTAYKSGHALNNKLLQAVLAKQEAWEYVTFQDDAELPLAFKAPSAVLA

Escherichia coli [3] = assay: Antibacterial activity against Escherichia coli KAM3 harboring acrB deletion mutant after 16 to 20 hrs by agar dilution method; assay type: functional
[4] = Ratio of MIC for wild-type Escherichia coli TG1 to MIC for Escherichia coli KAM3 acrB deletion mutant; assay type: functional
Pseudomonas aeruginosa [5] = assay: Antibacterial activity against Pseudomonas aeruginosa K799/61 measured after 16 to 20 hrs by agar dilution method; assay type: functional, organism-based
Pseudomonas aeruginosa [6] = assay: Antibacterial activity against Pseudomonas aeruginosa PAO4009 measured after 16 to 20 hrs by agar dilution method; assay type: functional, organism-based
Pseudomonas aeruginosa [7] = assay: Antibacterial activity against wild type Pseudomonas aeruginosa K799 measured after 16 to 20 hrs by agar dilution method; assay type: functional, organism-based
Acinetobacter baumannii = assay: Antibacterial activity against Acinetobacter baumannii ATCC 19606 measured after 20 to 24 hrs by agar dilution method; assay type: functional

`O=C(NO)[C@@H]1CN(c2ccc(C#CC#C[C@H]3C[C@@H]3CO)cc2)C(=O)O1` (mixture of isomers) showed an MIC (Escherichia coli [1]) of 0.125 µg/mL, an MIC (Klebsiella pneumoniae) of 1 µg/mL and an IC50 [2] of 0.02 µM. The MIC (Escherichia coli [3]) was 0.016 µg/mL and the Ratio [4] was 2.
Work on `O=C(NO)[C@@H]1CN(c2ccc(C#CC#CC3CC3)c([N+](=O)[O-])c2)C(=O)O1` yielded an MIC (Escherichia coli [1]) of 0.125 µg/mL (≈ 0.352 µM), an MIC (Klebsiella pneumoniae) of 1 µg/mL (≈ 2.81 µM) and an IC50 [2] of 0.027 µM. The MIC (Escherichia coli [3]) was 0.31 µg/mL (≈ 0.872 µM) and the Ratio [4] was 2.
For `O=C(NO)[C@@H]1CN(c2ccc(C#Cc3ccc(CN4CCOCC4)cc3)cc2)C(=O)CO1`, the MIC (Escherichia coli [1]) was 2 µg/mL (≈ 4.59 µM), the MIC (Klebsiella pneumoniae) was 16 µg/mL (≈ 36.7 µM) and the IC50 [2] was 0.51 µM. For the same molecule, the MIC (Escherichia coli [3]) was 0.25 µg/mL (≈ 0.574 µM).
`O=C(NO)[C@H]1CN(c2ccc(C#Cc3ccc(CN4CCOCC4)cc3)cc2)C(=O)O1` gave an MIC (Escherichia coli [1]) of 1 µg/mL (≈ 2.37 µM), an MIC (Klebsiella pneumoniae) of 8 µg/mL (≈ 19 µM) and an IC50 [2] of 0.26 µM. For the same molecule, the MIC (Escherichia coli [3]) was 0.13 µg/mL (≈ 0.308 µM).
For `O=C(NO)[C@@H]1CN(c2ccc(C#CC#CC3CC3)c(F)c2)C(=O)O1`, the MIC (Escherichia coli [1]) was 0.016 µg/mL (≈ 0.0487 µM), the Activity (Pseudomonas aeruginosa [5]) was “inactive” and the MIC (Klebsiella pneumoniae) was 0.063 µg/mL (≈ 0.192 µM). For the same molecule, the IC50 [2] was 0.006 µM, the MIC (Escherichia coli [3]) was 0.004 µg/mL (≈ 0.0122 µM) and the Activity (Pseudomonas aeruginosa [6]) was “inactive”. For the same molecule, the Activity (Pseudomonas aeruginosa [7]) was “inactive”, the Ratio [4] was 2 and the Activity (Acinetobacter baumannii) was “inactive”.
Work on `Nc1cc(N2C[C@@H](C(=O)NO)OC2=O)ccc1C#CC#CC1CC1` yielded an MIC (Escherichia coli [1]) of 0.25 µg/mL (≈ 0.768 µM), an MIC (Klebsiella pneumoniae) of 2 µg/mL (≈ 6.15 µM) and an IC50 [2] of 0.27 µM. For the same molecule, the MIC (Escherichia coli [3]) was 0.063 µg/mL (≈ 0.194 µM) and the Ratio [4] was 2.
`C[C@@H](O)[C@H](NC(=O)c1ccc(C#Cc2ccc(CN3CCOCC3)cc2)cc1)C(=O)NO` gave an MIC (Escherichia coli [1]) of 0.13 µg/mL (≈ 0.297 µM), an MIC (Klebsiella pneumoniae) of 0.25 µg/mL (≈ 0.571 µM) and an MIC (Escherichia coli [3]) of 0.01 µg/mL (≈ 0.0229 µM).
In the case of `O=C(NO)[C@@H]1CN(c2ccc(C#CC#CCCCO)cc2)C(=O)O1`, the MIC (Escherichia coli [1]) is reported as 0.125 µg/mL (≈ 0.381 µM), the MIC (Klebsiella pneumoniae) is reported as 2 µg/mL (≈ 6.09 µM) and the IC50 [2] is reported as 0.058 µM. For the same molecule, the MIC (Escherichia coli [3]) was 0.031 µg/mL (≈ 0.0944 µM) and the Ratio [4] was 2.
`COc1cc(C#CC#CC2CC2)ccc1N1C[C@@H](C(=O)NO)OC1=O` gave an MIC (Escherichia coli [1]) of 4 µg/mL (≈ 11.8 µM), an MIC (Klebsiella pneumoniae) of 32 µg/mL (≈ 94 µM) and an IC50 [2] of 2 µM. The MIC (Escherichia coli [3]) was 0.5 µg/mL (≈ 1.47 µM) and the Ratio [4] was 2.
In the case of `O=C(NO)c1ccc(=O)n(-c2ccc(C#Cc3ccc(CN4CCOCC4)cc3)cc2)c1`, the MIC (Escherichia coli [1]) is reported as 8 µg/mL (≈ 18.6 µM), the MIC (Klebsiella pneumoniae) is reported as 64 µg/mL (≈ 149 µM) and the IC50 [2] is reported as 1 µM. For the same molecule, the MIC (Escherichia coli [3]) was 1 µg/mL (≈ 2.33 µM).
For `O=C(NO)[C@@H]1CN(c2ccc(C#Cc3ccc(CN4CCOCC4)cc3)cc2)C(=O)N1`, the MIC (Escherichia coli [1]) was 8 µg/mL (≈ 19 µM), the MIC (Klebsiella pneumoniae) was > 32 µg/mL and the IC50 [2] was 0.7 µM. The MIC (Escherichia coli [3]) was 0.5 µg/mL (≈ 1.19 µM).
In the case of `O=C(NO)[C@@H]1CN(c2ccc(C#CC#CC3CC3)cc2F)C(=O)O1`, the MIC (Escherichia coli [1]) is reported as 0.5 µg/mL (≈ 1.52 µM), the Activity (Pseudomonas aeruginosa [5]) is reported as “inactive” and the MIC (Klebsiella pneumoniae) is reported as 4 µg/mL (≈ 12.2 µM). For the same molecule, the IC50 [2] was 0.2 µM, the MIC (Escherichia coli [3]) was 0.25 µg/mL (≈ 0.762 µM) and the Activity (Pseudomonas aeruginosa [6]) was “inactive”. The Activity (Pseudomonas aeruginosa [7]) was “inactive”, the Ratio [4] was 2 and the Activity (Acinetobacter baumannii) was “inactive”.
For `O=C(NO)[C@@H]1CN(c2ccc(C#Cc3ccc(CN4CCOCC4)cc3)cc2)C(=O)O1`, the MIC (Escherichia coli [1]) was 0.5 µg/mL (≈ 1.19 µM), the Activity (Pseudomonas aeruginosa [5]) was “inactive” and the MIC (Klebsiella pneumoniae) was 2 µg/mL (≈ 4.75 µM). The IC50 [2] was 0.13 µM, the MIC (Escherichia coli [3]) was 0.06 µg/mL (≈ 0.142 µM) and the Activity (Pseudomonas aeruginosa [6]) was “inactive”. For the same molecule, the Activity (Pseudomonas aeruginosa [7]) was “inactive”, the Ratio [4] was 2 and the Activity (Acinetobacter baumannii) was “inactive”.
`O=C(NO)[C@@H]1CN(c2ccc(C#CC#CCCO)cc2)C(=O)O1` showed an MIC (Escherichia coli [1]) of 0.5 µg/mL (≈ 1.59 µM), an MIC (Klebsiella pneumoniae) of 8 µg/mL (≈ 25.5 µM) and an IC50 [2] of 0.14 µM. The MIC (Escherichia coli [3]) was 0.125 µg/mL (≈ 0.398 µM) and the Ratio [4] was 2.
In the case of `O=C(NO)[C@@H]1CN(c2ccc(C#CC#CC3CC3)cc2)C(=O)O1`, the MIC (Escherichia coli [1]) is reported as 0.063 µg/mL (≈ 0.203 µM), the Activity (Pseudomonas aeruginosa [5]) is reported as “inactive” and the MIC (Klebsiella pneumoniae) is reported as 0.25 µg/mL (≈ 0.806 µM). For the same molecule, the IC50 [2] was 0.018 µM, the MIC (Escherichia coli [3]) was 0.016 µg/mL (≈ 0.0516 µM) and the Activity (Pseudomonas aeruginosa [6]) was “inactive”. The Activity (Pseudomonas aeruginosa [7]) was “inactive”, the Ratio [4] was 2 and the Activity (Acinetobacter baumannii) was “inactive”.
